{"source": "patent US7300946B2", "about": "“N-(substituted arylmethyl)-4-(disubstituted methyl) piperidines and pyridines” (Bayer CropScience AG, priority 2002, dated 2007)", "system": "tobacco budworm (Heliothis virescens [Fabricius])", "experiment": "surface-treated diet test against the tobacco budworm", "format": "in vivo", "conditions": "tobacco budworm second instar larvae, 0.25 millimoles of candidate insecticide on the surface of the diet, five-day exposure; for Percent Mortality: compared to total number of insects infested; for Percent Growth Inhibition: inhibition of insect weight relative to untreated controls", "how_it_was_run": "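Wheat germ artificial diet surface-treated with 40 µL of 50 mM DMSO stock diluted 1:7 in 1:1 water/acetone (0.25 millimolar on diet), or sub-multiples for rate tests. One second-instar larva per well, 25° C, 60% RH, 5 days; percent weight inhibition vs DMSO controls and percent mortality.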", "data": [{"smiles": "CCON=Cc1ccc(CN2CCC(C(Oc3ccc(C(F)(F)F)cc3)c3ccc(C(F)(F)F)cc3)CC2)cc1", "note": "(centres unmarked) [Compound 454]", "values": [{"measurement": "Percent Mortality", "setting": "surface-treated diet", "result": 100, "unit": "%"}, {"measurement": "Percent Growth Inhibition", "setting": "surface-treated diet", "result": 100, "unit": "%"}]}, {"smiles": "Cn1nnc(-c2ccc(CN3CCC(=C(c4ccc(Cl)cc4)c4ccc(C(F)(F)F)cc4)CC3)cc2)n1", "note": "[Compound 74]", "values": [{"measurement": "Percent Mortality", "setting": "surface-treated diet", "result": 100, "unit": "%"}, {"measurement": "Percent Growth Inhibition", "setting": "surface-treated diet", "result": 100, "unit": "%"}]}, {"smiles": "CC(C)OC(=O)c1ccc(CN2CCC(C(OC(=O)Nc3cc(F)cc(F)c3)c3ccc(C(F)(F)F)cc3)CC2)cc1", "note": "(centres unmarked) [Compound 493]", "values": [{"measurement": "Percent Mortality", "setting": "surface-treated diet", "result": 100, "unit": "%"}, {"measurement": "Percent Growth Inhibition", "setting": "surface-treated diet", "result": 100, "unit": "%"}]}, {"smiles": "O=C(Nc1ccc(F)cc1F)OC(c1ccc(C(F)(F)F)cc1)C1CC[N+]([O-])(Cc2ccc(Oc3ccccn3)cc2)CC1", "note": "(centres unmarked) [Compound 753]", "values": [{"measurement": "Percent Mortality", "result": 100, "unit": "%"}, {"measurement": "Percent Growth Inhibition", "result": 100, "unit": "%"}]}, {"smiles": "O=C(Nc1cc(F)cc(F)c1)OC(c1ccc(C(F)(F)F)cc1)C1CCN(Cc2ccc(S(=O)(=O)NC3CCCC3)cc2)CC1", "note": "(centres unmarked) [Compound 542]", "values": [{"measurement": "Percent Mortality", "setting": "surface-treated diet", "result": 0, "unit": "%"}, {"measurement": "Percent Growth Inhibition", "setting": "surface-treated diet", "result": 43, "unit": "%"}]}, {"smiles": "O=C(Nc1cc(F)cc(F)c1)OC(c1ccc(C(F)(F)F)cc1)C1CCN(Cc2ccc(NC(=O)c3c(Cl)cccc3Cl)cc2)CC1", "note": "(centres unmarked) [Compound 551]", "values": [{"measurement": "Percent Mortality", "setting": "surface-treated diet", "result": 100, "unit": "%"}, {"measurement": "Percent Growth Inhibition", "setting": "surface-treated diet", "result": 100, "unit": "%"}]}, {"smiles": "O=C(Nc1ccc(F)cc1)OC(c1ccc(Cl)cc1)C1CCN(Cc2ccc(Oc3ccccn3)cc2)CC1", "note": "(centres unmarked) [Compound 630]", "values": [{"measurement": "Percent Mortality", "setting": "surface-treated diet", "result": 100, "unit": "%"}, {"measurement": "Percent Growth Inhibition", "setting": "surface-treated diet", "result": 100, "unit": "%"}]}, {"smiles": "[O-][N+]1(Cc2ccc(Oc3ncccn3)cc2)CCC(=C(c2ccc(C(F)(F)F)cc2)c2cccc(F)c2)CC1", "note": "(centres unmarked) [Compound 848]", "values": [{"measurement": "Percent Mortality", "result": 83, "unit": "%"}, {"measurement": "Percent Growth Inhibition", "result": 100, "unit": "%"}]}, {"smiles": "FC(F)(F)c1ccc(C(=C2CCN(Cc3ccc(Oc4ncccn4)cc3)CC2)c2ccc(Cl)c(Cl)c2)cc1", "note": "[Compound 818]", "values": [{"measurement": "Percent Mortality", "result": 100, "unit": "%"}, {"measurement": "Percent Growth Inhibition", "result": 100, "unit": "%"}]}, {"smiles": "CCON=Cc1ccc(CN2CCC(C(OC(=O)Nc3ccc(C(F)(F)F)cc3)c3ccc(C(F)(F)F)cc3)CC2)cc1", "note": "(centres unmarked) [Compound 205]", "values": [{"measurement": "Percent Mortality", "setting": "surface-treated diet", "result": 33, "unit": "%"}, {"measurement": "Percent Growth Inhibition", "setting": "surface-treated diet", "result": 100, "unit": "%"}]}, {"smiles": "Cn1nnc(-c2ccc(CN3CCC(C(OC(=O)Nc4ccccc4Cl)c4ccc(OC(F)(F)F)cc4)CC3)cc2)n1", "note": "(centres unmarked) [Compound 262]", "values": [{"measurement": "Percent Mortality", "setting": "surface-treated diet", "result": 100, "unit": "%"}, {"measurement": "Percent Growth Inhibition", "setting": "surface-treated diet", "result": 100, "unit": "%"}]}, {"smiles": "CC(=O)Oc1ccc(CN2CCC(=C(c3ccc(C(F)(F)F)cc3)c3ccc(C(F)(F)F)cc3)CC2)cc1", "note": "[Compound 788]", "values": [{"measurement": "Percent Mortality", "result": 33, "unit": "%"}, {"measurement": "Percent Growth Inhibition", "result": 87, "unit": "%"}]}, {"smiles": "O=C(Nc1ccc(Cl)cc1)OC(c1ccc(C(F)(F)F)cc1)C1CCN(Cc2ccc(Oc3ccccn3)cc2)CC1", "note": "(centres unmarked) [Compound 227, N-(4-chlorophenyl)({1-[(4-(2-pyridyloxy)phenyl)methyl](4-piperidyl)}[4-(trifluoromethyl)phenyl]methoxy)carboxamide]", "values": [{"measurement": "Percent Mortality", "setting": "surface-treated diet", "result": 100, "unit": "%"}, {"measurement": "Percent Growth Inhibition", "setting": "surface-treated diet", "result": 100, "unit": "%"}]}, {"smiles": "Clc1ccc(C(=C2CCN(Cc3ccc(Oc4ncccn4)cc3)CC2)c2ccc(Cl)c(Cl)c2)cc1Cl", "note": "[Compound 813]", "values": [{"measurement": "Percent Mortality", "result": 100, "unit": "%"}, {"measurement": "Percent Growth Inhibition", "result": 100, "unit": "%"}]}, {"smiles": "Nc1ccc(CN2CCC(C(OC(=O)Nc3cc(F)cc(F)c3)c3ccc(C(F)(F)F)cc3)CC2)cc1", "note": "(centres unmarked) [Compound 466]", "values": [{"measurement": "Percent Mortality", "setting": "surface-treated diet", "result": 17, "unit": "%"}, {"measurement": "Percent Growth Inhibition", "setting": "surface-treated diet", "result": 77, "unit": "%"}]}, {"smiles": "CC(C)S(=O)(=O)Oc1ccc(CN2CCC(=C(c3ccc(C(F)(F)F)cc3)c3ccc(C(F)(F)F)cc3)CC2)cc1", "note": "[Compound 804]", "values": [{"measurement": "Percent Mortality", "result": 100, "unit": "%"}, {"measurement": "Percent Growth Inhibition", "result": 100, "unit": "%"}]}, {"smiles": "CCn1nnc(-c2ccc(CN3CCC(C(OC(=O)Nc4ccc(F)c(F)c4)c4ccccc4Cl)CC3)cc2)n1", "note": "(centres unmarked) [Compound 569]", "values": [{"measurement": "Percent Mortality", "setting": "surface-treated diet", "result": 100, "unit": "%"}, {"measurement": "Percent Growth Inhibition", "setting": "surface-treated diet", "result": 100, "unit": "%"}]}, {"smiles": "CC(C)OC(=O)Nc1ccc(CN2CCC(=C(c3ccc(C(F)(F)F)cc3)c3ccc(C(F)(F)F)cc3)CC2)cc1", "note": "[Compound 58]", "values": [{"measurement": "Percent Mortality", "setting": "surface-treated diet", "result": 100, "unit": "%"}, {"measurement": "Percent Growth Inhibition", "setting": "surface-treated diet", "result": 100, "unit": "%"}]}, {"smiles": "O=C(Nc1ccc(F)cc1)OC(c1cccc(C(F)(F)F)c1)C1CCN(Cc2ccc(Oc3ccccn3)cc2)CC1", "note": "(centres unmarked) [Compound 653]", "values": [{"measurement": "Percent Mortality", "setting": "surface-treated diet", "result": 100, "unit": "%"}, {"measurement": "Percent Growth Inhibition", "setting": "surface-treated diet", "result": 100, "unit": "%"}]}]}
